# Experimental data taken from the supplement of paper PMC10307832.
# How the values were obtained:
# Assay in all cases: relative viability (nuclei count vs DMSO), 5 days (fraction); higher = more cells survive
# EMC-BAC-2 = test system: EMC-BAC-2
# How it was run: (§1)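 Medians of duplicate plates are given as relative viability. That measure is the nuclei count in treated wells divided by the count in vehicle wells. Counts were taken on 4× images of lung cancer cell lines in 1536-well plates, 5 days after pin-tool dosing the day after seeding with one drug alone or a fixed anchor-drug dose plus five library-drug doses (not always all listed) in √10 steps.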
# EPLC-272H = test system: EPLC-272H
# How it was run: as §1
# H3255 = test system: H3255
# How it was run: as §1
# HOP-62 = test system: HOP-62
# How it was run: as §1
# LCLC-97TM1 = test system: LCLC-97TM1
# How it was run: as §1
# LXF-289 = test system: LXF-289
# How it was run: as §1
# NCI-H1563 = test system: NCI-H1563
# How it was run: as §1
# NCI-H1650 = test system: NCI-H1650
# How it was run: as §1
# NCI-H1915 = test system: NCI-H1915
# How it was run: as §1
# NCI-H1993 = test system: NCI-H1993
# How it was run: as §1
# NCI-H2009 = test system: NCI-H2009
# How it was run: as §1
# NCI-H2023 = test system: NCI-H2023
# How it was run: as §1
# NCI-H2085 = test system: NCI-H2085
# How it was run: as §1
# NCI-H2126 = test system: NCI-H2126
# How it was run: as §1
# NCI-H2347 = test system: NCI-H2347
# How it was run: as §1
# NCI-H322M = test system: NCI-H322M
# How it was run: as §1
# NCI-H647 = test system: NCI-H647
# How it was run: as §1
# NCI-H661 = test system: NCI-H661
# How it was run: as §1
# NCI-H727 = test system: NCI-H727
# How it was run: as §1
# PC-14 = test system: PC-14
# How it was run: as §1
# SK-LU-1 = test system: SK-LU-1
# How it was run: as §1
# SW 1573 = test system: SW 1573
# How it was run: as §1
smiles,measurement,setting,value
NC(=O)Nc1cc(-c2cccc(F)c2)sc1C(=O)N[C@H]1CCCNC1 [AZD7762] + C[C@@H](Oc1cc(-c2cnn(C3CCNCC3)c2)cnc1N)c1c(Cl)ccc(F)c1Cl [Crizotinib] (partner 1 µM),relative viability,EMC-BAC-2; first compound 0.01 µM,0.852
same,relative viability,EMC-BAC-2; first compound 0.03162 µM,0.718
same,relative viability,EMC-BAC-2; first compound 0.1 µM,0.777
same,relative viability,EMC-BAC-2; first compound 0.3162 µM,0.797
same,relative viability,EMC-BAC-2; first compound 1 µM,0.706
same,relative viability,EPLC-272H; first compound 0.01 µM,0.895
same,relative viability,EPLC-272H; first compound 0.03162 µM,1.11
same,relative viability,EPLC-272H; first compound 0.1 µM,0.967
same,relative viability,EPLC-272H; first compound 0.3162 µM,0.859
same,relative viability,EPLC-272H; first compound 1 µM,0.75
same,relative viability,H3255; first compound 0.01 µM,0.997
same,relative viability,H3255; first compound 0.03162 µM,0.88
same,relative viability,H3255; first compound 0.1 µM,0.891
same,relative viability,H3255; first compound 0.3162 µM,0.867
same,relative viability,H3255; first compound 1 µM,0.42
same,relative viability,HOP-62; first compound 0.01 µM,0.786
same,relative viability,HOP-62; first compound 0.03162 µM,1.03
same,relative viability,HOP-62; first compound 0.1 µM,1.17
same,relative viability,HOP-62; first compound 0.3162 µM,1.1
same,relative viability,HOP-62; first compound 1 µM,1.16
same,relative viability,LCLC-97TM1; first compound 0.01 µM,0.385
same,relative viability,LCLC-97TM1; first compound 0.03162 µM,0.337
same,relative viability,LCLC-97TM1; first compound 0.1 µM,0.317
same,relative viability,LCLC-97TM1; first compound 0.3162 µM,0.448
same,relative viability,LCLC-97TM1; first compound 1 µM,0.334
same,relative viability,LXF-289; first compound 0.01 µM,0.788
same,relative viability,LXF-289; first compound 0.03162 µM,0.8
same,relative viability,LXF-289; first compound 0.1 µM,0.828
same,relative viability,LXF-289; first compound 0.3162 µM,0.864
same,relative viability,LXF-289; first compound 1 µM,0.816
same,relative viability,NCI-H1563; first compound 0.01 µM,0.957
same,relative viability,NCI-H1563; first compound 0.03162 µM,0.833
same,relative viability,NCI-H1563; first compound 0.1 µM,0.872
same,relative viability,NCI-H1563; first compound 0.3162 µM,0.889
same,relative viability,NCI-H1563; first compound 1 µM,0.741
same,relative viability,NCI-H1650; first compound 0.01 µM,1.18
same,relative viability,NCI-H1650; first compound 0.03162 µM,1.03
same,relative viability,NCI-H1650; first compound 0.1 µM,0.864
same,relative viability,NCI-H1650; first compound 0.3162 µM,0.603
same,relative viability,NCI-H1650; first compound 1 µM,0.207
same,relative viability,NCI-H1915; first compound 0.01 µM,0.93
same,relative viability,NCI-H1915; first compound 0.03162 µM,0.919
same,relative viability,NCI-H1915; first compound 0.1 µM,0.891
same,relative viability,NCI-H1915; first compound 0.3162 µM,0.944
same,relative viability,NCI-H1915; first compound 1 µM,0.823
same,relative viability,NCI-H1993; first compound 0.01 µM,0.952
same,relative viability,NCI-H1993; first compound 0.03162 µM,0.957
same,relative viability,NCI-H1993; first compound 0.1 µM,0.729
same,relative viability,NCI-H1993; first compound 0.3162 µM,0.873
same,relative viability,NCI-H1993; first compound 1 µM,0.808
same,relative viability,NCI-H2009; first compound 0.01 µM,1.04
same,relative viability,NCI-H2009; first compound 0.03162 µM,1.13
same,relative viability,NCI-H2009; first compound 0.1 µM,1.07
same,relative viability,NCI-H2009; first compound 0.3162 µM,0.954
same,relative viability,NCI-H2009; first compound 1 µM,0.38
same,relative viability,NCI-H2023; first compound 0.01 µM,0.573
same,relative viability,NCI-H2023; first compound 0.03162 µM,0.612
same,relative viability,NCI-H2023; first compound 0.1 µM,0.417
same,relative viability,NCI-H2023; first compound 0.3162 µM,0.209
same,relative viability,NCI-H2023; first compound 1 µM,0.118
same,relative viability,NCI-H2085; first compound 0.01 µM,1.01
same,relative viability,NCI-H2085; first compound 0.03162 µM,0.889
same,relative viability,NCI-H2085; first compound 0.1 µM,0.839
same,relative viability,NCI-H2085; first compound 0.3162 µM,0.853
same,relative viability,NCI-H2085; first compound 1 µM,0.644
same,relative viability,NCI-H2126; first compound 0.01 µM,1.01
same,relative viability,NCI-H2126; first compound 0.03162 µM,1.01
same,relative viability,NCI-H2126; first compound 0.1 µM,1.12
same,relative viability,NCI-H2126; first compound 0.3162 µM,1.04
same,relative viability,NCI-H2126; first compound 1 µM,1.05
same,relative viability,NCI-H2347; first compound 0.01 µM,1.01
same,relative viability,NCI-H2347; first compound 0.03162 µM,0.918
same,relative viability,NCI-H2347; first compound 0.1 µM,0.734
same,relative viability,NCI-H2347; first compound 0.3162 µM,0.928
same,relative viability,NCI-H2347; first compound 1 µM,0.67
same,relative viability,NCI-H322M; first compound 0.01 µM,1.04
same,relative viability,NCI-H322M; first compound 0.03162 µM,0.845
same,relative viability,NCI-H322M; first compound 0.1 µM,0.883
same,relative viability,NCI-H322M; first compound 0.3162 µM,0.962
same,relative viability,NCI-H322M; first compound 1 µM,0.417
same,relative viability,NCI-H647; first compound 0.01 µM,1.15
same,relative viability,NCI-H647; first compound 0.03162 µM,1.11
same,relative viability,NCI-H647; first compound 0.1 µM,0.941
same,relative viability,NCI-H647; first compound 0.3162 µM,0.546
same,relative viability,NCI-H647; first compound 1 µM,0.105
same,relative viability,NCI-H661; first compound 0.01 µM,0.952
same,relative viability,NCI-H661; first compound 0.03162 µM,0.87
same,relative viability,NCI-H661; first compound 0.1 µM,1.08
same,relative viability,NCI-H661; first compound 0.3162 µM,0.99
same,relative viability,NCI-H661; first compound 1 µM,0.886
same,relative viability,NCI-H727; first compound 0.01 µM,0.984
same,relative viability,NCI-H727; first compound 0.03162 µM,0.865
same,relative viability,NCI-H727; first compound 0.1 µM,0.758
same,relative viability,NCI-H727; first compound 0.3162 µM,0.519
same,relative viability,NCI-H727; first compound 1 µM,0.259
same,relative viability,PC-14; first compound 0.01 µM,0.943
same,relative viability,PC-14; first compound 0.03162 µM,0.859
same,relative viability,PC-14; first compound 0.1 µM,0.922
same,relative viability,PC-14; first compound 0.3162 µM,0.81
same,relative viability,PC-14; first compound 1 µM,0.41
same,relative viability,SK-LU-1; first compound 0.01 µM,0.991
same,relative viability,SK-LU-1; first compound 0.03162 µM,0.714
same,relative viability,SK-LU-1; first compound 0.1 µM,0.38
same,relative viability,SK-LU-1; first compound 0.3162 µM,0.226
same,relative viability,SK-LU-1; first compound 1 µM,0.285
same,relative viability,SW 1573; first compound 0.01 µM,0.976
same,relative viability,SW 1573; first compound 0.03162 µM,0.879
same,relative viability,SW 1573; first compound 0.1 µM,0.907
same,relative viability,SW 1573; first compound 0.3162 µM,0.934
same,relative viability,SW 1573; first compound 1 µM,0.738
